The source of these data is ChEMBL document CHEMBL4396896, “N-Aminoacyl and N-hydroxyacyl derivatives of diosgenyl 2-amino-2-deoxy-β-d-glucopyranoside: Synthesis, antimicrobial and hemolytic activities” (Bioorg Med Chem, 2019).

≈ marks a conversion by molar mass, not a printed value.

One series relates to Candida albicans. The series is described as follows: Antifungal activity against Candida albicans ATCC 10231 incubated in sabouraud liquid medium under aerobic condition for 48 hrs using initial inoculum of 10^3 CFU/ml by serial dilution method. The series is classed as functional. Conditions: ATCC 10231, 48 h.
The test system of a further series is Bacillus subtilis. The experiment in a line: Antibacterial activity against Bacillus subtilis ATCC 6633 incubated in MHB II under aerobic condition for 18 hrs using initial inoculum of 5 x 10^5 CFU/ml by serial dilution method. It is filed as functional. Conditions: ATCC 6633, 18 h.
The test system of another series is Enterococcus faecalis. The series is described as follows: Antibacterial activity against Enterococcus faecalis ATCC 29212 incubated in MHB II under aerobic condition for 18 hrs using initial inoculum of 5 x 10^5 CFU/ml by serial dilution method. The series is classed as functional. The settings on record: ATCC 29212, 18 h.
The next series has as its system Staphylococcus aureus. The experiment in a line: Antibacterial activity against Staphylococcus aureus ATCC 25923 incubated in MHB II under aerobic condition for 18 hrs using initial inoculum of 5 x 10^5 CFU/ml by serial dilution method. The series is classed as functional. The settings on record: ATCC 25923, 18 h.
For series [1], the system named is Staphylococcus epidermidis. The experiment in a line: Antibacterial activity against Staphylococcus epidermidis PCM 2118 incubated in MHB II under aerobic condition for 18 hrs using initial inoculum of 5 x 10^5 CFU/ml by serial dilution method. It is filed as functional. The settings on record: PCM 2118, 18 h.
In a further series the test system is Escherichia coli. The series is described as follows: Antibacterial activity against Escherichia coli ATCC 25922 incubated in MHB II under aerobic condition for 18 hrs using initial inoculum of 5 x 10^5 CFU/ml by serial dilution method. It is filed as functional. The settings on record: ATCC 25922, 18 h.
Another series concerns Klebsiella pneumoniae. The experiment in a line: Antibacterial activity against Klebsiella pneumoniae ATCC 700603 incubated in MHB II under aerobic condition for 18 hrs using initial inoculum of 5 x 10^5 CFU/ml by serial dilution method. The settings on record: ATCC 700603, 18 h. It is filed as functional.
Another series has as its system Proteus mirabilis. The experiment in a line: Antibacterial activity against Proteus mirabilis PCM 543 incubated in MHB II under aerobic condition for 18 hrs using initial inoculum of 5 x 10^5 CFU/ml by serial dilution method. The settings on record: PCM 543, 18 h. The series is classed as functional.
The next series has as its system Pseudomonas aeruginosa. The series is described as follows: Antibacterial activity against Pseudomonas aeruginosa ATCC 9027 incubated in MHB II under aerobic condition for 18 hrs using initial inoculum of 5 x 10^5 CFU/ml by serial dilution method. The series is classed as functional. Conditions: ATCC 9027, 18 h.
Another series concerns Yarrowia lipolytica. The experiment in a line: Antifungal activity against Candida lipolytica PCM 2680 incubated in sabouraud liquid medium under aerobic condition for 48 hrs using initial inoculum of 10^3 CFU/ml by serial dilution method. It is filed as functional. Conditions: PCM 2680, 48 h.
The nature of series [2]: Haemolytic activity in human erythrocytes assessed as haemolytic index by measuring hemoglobin release at 0.5 to 128 mg/L incubated for 1 hr by microplate spectrophotometry relative to control. It is filed as ADME, cell-based, Erythrocyte. The settings on record: human erythrocytes, read-out: HI.
Series [3] is described as follows: Haemolytic activity in human erythrocytes assessed as haemolytic index by measuring hemoglobin release at 128 mg/L incubated for 1 hr by microplate spectrophotometry. The series is classed as ADME, cell-based, Erythrocyte. The settings on record: read-out: HI.

As a reminder, the MIC is the least concentration at which growth counts as inhibited. Higher therefore signals weaker potency. Take `CC(=O)N[C@H]1[C@H](O[C@H]2CC[C@@]3(C)C(=CC[C@H]4[C@@H]5C[C@@H]6O[C@]7(CC[C@@H](C)CO7)[C@@H](C)[C@@H]6[C@@]5(C)CC[C@@H]43)C2)O[C@H](CO)[C@@H](O)[C@@H]1O`: the MIC (with Candida albicans; against Bacillus subtilis; against Enterococcus faecalis; against Staphylococcus aureus; in series [1]; in the series on Escherichia coli) was greater than 128 µg/mL in each case. In addition, the MIC in the series on Klebsiella pneumoniae, in the series with Proteus mirabilis and in the series on Pseudomonas aeruginosa was greater than 128 µg/mL in each case.

With `C[C@@H]1CC[C@@]2(OC1)O[C@H]1C[C@H]3[C@@H]4CC=C5C[C@@H](O[C@@H]6O[C@H](CO)[C@@H](O)[C@H](O)[C@H]6NC(=O)CO)CC[C@]5(C)[C@H]4CC[C@]3(C)[C@H]1[C@@H]2C`, the minimal inhibitory concentration (MIC) (in the series with Candida albicans; in the series with Yarrowia lipolytica; against Bacillus subtilis; against Enterococcus faecalis; in the series on Staphylococcus aureus; in series [1]) was greater than 128 µg/mL in each case. Further, the MIC in the series with Escherichia coli, with Klebsiella pneumoniae, in the series on Proteus mirabilis and with Pseudomonas aeruginosa was greater than 128 µg/mL throughout. In addition, the hemolysis at 1 h in series [2] was less than 10%.

`C[C@@H]1CC[C@@]2(OC1)O[C@H]1C[C@H]3[C@@H]4CC=C5C[C@@H](O[C@@H]6O[C@H](CO)[C@@H](O)[C@H](O)[C@H]6NC(=O)[C@@H](N)CO)CC[C@]5(C)[C@H]4CC[C@]3(C)[C@H]1[C@@H]2C`: the MIC against Candida albicans was found to be 4 µg/mL (≈ 6.03 µM); against Yarrowia lipolytica, 4 µg/mL (≈ 6.03 µM); in the series on Bacillus subtilis it was 8 µg/mL (≈ 12.1 µM); against Enterococcus faecalis, 16 µg/mL (≈ 24.1 µM); against Staphylococcus aureus, 8 µg/mL (≈ 12.1 µM); in series [1] it was 4 µg/mL (≈ 6.03 µM). For the same compound, the minimal inhibitory concentration (MIC) in the series with Escherichia coli, in the series on Klebsiella pneumoniae, in the series on Proteus mirabilis and in the series on Pseudomonas aeruginosa was greater than 128 µg/mL throughout. Besides, the hemolysis at 1 h, 128 mg/L in series [3] amounted to 46%.

`CNCC(=O)N[C@H]1[C@H](O[C@H]2CC[C@@]3(C)C(=CC[C@H]4[C@@H]5C[C@@H]6O[C@]7(CC[C@@H](C)CO7)[C@@H](C)[C@@H]6[C@@]5(C)CC[C@@H]43)C2)O[C@H](CO)[C@@H](O)[C@@H]1O`: the MIC (against Candida albicans; in the series on Yarrowia lipolytica; with Bacillus subtilis; in the series on Enterococcus faecalis; in the series on Staphylococcus aureus; in [1]) was 4 µg/mL (≈ 6.18 µM) throughout. Besides, the MIC in the series with Escherichia coli, in the series on Klebsiella pneumoniae, in the series with Proteus mirabilis and in the series on Pseudomonas aeruginosa was greater than 128 µg/mL in each case. Besides, the hemolysis at 1 h in series [2] was less than 10%.

With `CSCC[C@H](N)C(=O)N[C@H]1[C@H](O[C@H]2CC[C@@]3(C)C(=CC[C@H]4[C@@H]5C[C@@H]6O[C@]7(CC[C@@H](C)CO7)[C@@H](C)[C@@H]6[C@@]5(C)CC[C@@H]43)C2)O[C@H](CO)[C@@H](O)[C@@H]1O`, the minimum inhibitory concentration (MIC) against Bacillus subtilis was greater than 128 µg/mL; with Enterococcus faecalis it was 4 µg/mL (≈ 5.66 µM); in the series on Staphylococcus aureus it was greater than 128 µg/mL; in series [1] it was 4 µg/mL (≈ 5.66 µM); in the series with Escherichia coli, greater than 128 µg/mL; in the series on Klebsiella pneumoniae, greater than 128 µg/mL. For the same compound, the MIC against Proteus mirabilis and with Pseudomonas aeruginosa was greater than 128 µg/mL in each case. Moreover, the hemolysis at 1 h in [2] is less than 4%.

Consider `CC(=O)NCC(=O)N[C@H]1[C@H](O[C@H]2CC[C@@]3(C)C(=CC[C@H]4[C@@H]5C[C@@H]6O[C@]7(CC[C@@H](C)CO7)[C@@H](C)[C@@H]6[C@@]5(C)CC[C@@H]43)C2)O[C@H](CO)[C@@H](O)[C@@H]1O`, for which the MIC (in the series with Candida albicans; against Yarrowia lipolytica; against Bacillus subtilis; with Enterococcus faecalis; in the series on Staphylococcus aureus; in series [1]) was greater than 128 µg/mL throughout. Further, the MIC in the series on Escherichia coli, with Klebsiella pneumoniae, in the series on Proteus mirabilis and with Pseudomonas aeruginosa was greater than 128 µg/mL in each case. The hemolysis at 1 h in series [2] is less than 10%.

Turning to `C[C@@H]1CC[C@@]2(OC1)O[C@H]1C[C@H]3[C@@H]4CC=C5C[C@@H](O[C@@H]6O[C@H](CO)[C@@H](O)[C@H](O)[C@H]6NC(=O)C(F)(F)F)CC[C@]5(C)[C@H]4CC[C@]3(C)[C@H]1[C@@H]2C`, the MIC (against Candida albicans; against Bacillus subtilis; in the series with Enterococcus faecalis; against Staphylococcus aureus; in series [1]; in the series on Escherichia coli) was greater than 128 µg/mL in each case. The MIC against Klebsiella pneumoniae, against Proteus mirabilis and in the series on Pseudomonas aeruginosa was greater than 128 µg/mL throughout.

`C[C@@H]1CC[C@@]2(OC1)O[C@H]1C[C@H]3[C@@H]4CC=C5C[C@@H](O[C@@H]6O[C@H](CO)[C@@H](O)[C@H](O)[C@H]6NC(=O)[C@H](C)N)CC[C@]5(C)[C@H]4CC[C@]3(C)[C@H]1[C@@H]2C`: the MIC with Candida albicans worked out at 4 µg/mL (≈ 6.18 µM); against Yarrowia lipolytica, 2 µg/mL (≈ 3.09 µM); against Bacillus subtilis it was 8 µg/mL (≈ 12.4 µM); in the series with Enterococcus faecalis, 4 µg/mL (≈ 6.18 µM); against Staphylococcus aureus, 4 µg/mL (≈ 6.18 µM); in series [1], 4 µg/mL (≈ 6.18 µM). Moreover, the MIC in the series on Escherichia coli, against Klebsiella pneumoniae, in the series with Proteus mirabilis and with Pseudomonas aeruginosa was greater than 128 µg/mL each time. Further, the hemolysis at 1 h in series [2] was less than 10%.

`C[C@@H]1CC[C@@]2(OC1)O[C@H]1C[C@H]3[C@@H]4CC=C5C[C@@H](O[C@@H]6O[C@H](CO)[C@@H](O)[C@H](O)[C@H]6NC(=O)[C@@H](C)N)CC[C@]5(C)[C@H]4CC[C@]3(C)[C@H]1[C@@H]2C`: the MIC in the series with Candida albicans worked out at 4 µg/mL (≈ 6.18 µM); in the series on Yarrowia lipolytica, 8 µg/mL (≈ 12.4 µM); against Bacillus subtilis it was 2 µg/mL (≈ 3.09 µM); in the series with Enterococcus faecalis it was 2 µg/mL (≈ 3.09 µM); in the series on Staphylococcus aureus, 2 µg/mL (≈ 3.09 µM); in [1], 2 µg/mL (≈ 3.09 µM). The MIC with Escherichia coli, in the series with Klebsiella pneumoniae, in the series with Proteus mirabilis and against Pseudomonas aeruginosa was greater than 128 µg/mL each time. Besides, the hemolysis at 1 h in [2] is less than 10%.

Regarding `C[C@@H]1CC[C@@]2(OC1)O[C@H]1C[C@H]3[C@@H]4CC=C5C[C@@H](O[C@@H]6O[C@H](CO)[C@@H](O)[C@H](O)[C@H]6NC(=O)[C@@H](N)CCCCN)CC[C@]5(C)[C@H]4CC[C@]3(C)[C@H]1[C@@H]2C`, the MIC against Candida albicans is 4 µg/mL (≈ 5.68 µM); with Yarrowia lipolytica it was 4 µg/mL (≈ 5.68 µM); against Bacillus subtilis, 32 µg/mL (≈ 45.5 µM); with Enterococcus faecalis, 16 µg/mL (≈ 22.7 µM); with Staphylococcus aureus it was 16 µg/mL (≈ 22.7 µM); in series [1] it was 16 µg/mL (≈ 22.7 µM). Also, the MIC in the series on Escherichia coli, with Klebsiella pneumoniae, against Proteus mirabilis and against Pseudomonas aeruginosa was greater than 128 µg/mL throughout. Also, in series [3], the hemolysis at 1 h, 128 mg/L is 92%.

Consider `C[C@@H]1CC[C@@]2(OC1)O[C@H]1C[C@H]3[C@@H]4CC=C5C[C@@H](O[C@@H]6O[C@H](CO)[C@@H](O)[C@H](O)[C@H]6NC(=O)[C@@H](N)[C@@H](C)O)CC[C@]5(C)[C@H]4CC[C@]3(C)[C@H]1[C@@H]2C`, for which the minimal inhibitory concentration (MIC) in the series with Candida albicans was found to be 4 µg/mL (≈ 5.91 µM); in the series on Yarrowia lipolytica it was 4 µg/mL (≈ 5.91 µM); against Bacillus subtilis, 32 µg/mL (≈ 47.3 µM); in the series with Enterococcus faecalis, 16 µg/mL (≈ 23.6 µM); in the series on Staphylococcus aureus, 16 µg/mL (≈ 23.6 µM); in series [1], 16 µg/mL (≈ 23.6 µM). In addition, the MIC against Escherichia coli, in the series on Klebsiella pneumoniae, against Proteus mirabilis and against Pseudomonas aeruginosa was greater than 128 µg/mL throughout. Moreover, in series [3], the hemolysis at 1 h, 128 mg/L worked out at 56%.

For the compound `C[C@@H]1CC[C@@]2(OC1)O[C@H]1C[C@H]3[C@@H]4CC=C5C[C@@H](O[C@@H]6O[C@H](CO)[C@@H](O)[C@H](O)[C@H]6NC(=O)[C@H](C)O)CC[C@]5(C)[C@H]4CC[C@]3(C)[C@H]1[C@@H]2C`, the MIC (against Candida albicans; against Yarrowia lipolytica; in the series on Bacillus subtilis; with Enterococcus faecalis; against Staphylococcus aureus; in [1]) was greater than 128 µg/mL in each case. The MIC in the series with Escherichia coli, in the series with Klebsiella pneumoniae, against Proteus mirabilis and against Pseudomonas aeruginosa was greater than 128 µg/mL each time. Also, the hemolysis at 1 h in series [2] is less than 10%.
